{"source": "patent US5328902A", "about": "“7-(substituted)-9-[(substituted glycyl)amido]-6-demethyl-6-deoxytetracyclines” (American Cyanamid Co., priority 1992, dated 1994)", "key": {"[1]": {"system": "S. aureus SMITH (MP)", "assay": "MIC, agar dilution", "format": "cell-based", "conditions": "S. aureus SMITH (MP)"}, "[2]": {"system": "E. coli PRP1 Tet A", "assay": "microbe, parasite or virus in culture", "format": "cell-based", "conditions": "E. coli PRP1 Tet A"}, "[3]": {"system": "S. hemolyticus AVHAH 88-3", "assay": "MIC, agar dilution", "format": "cell-based", "conditions": "S. hemolyticus AVHAH 88-3"}, "[4]": {"system": "S. mariescens FPOR 8733", "assay": "MIC, agar dilution", "format": "cell-based"}, "[5]": {"system": "E. coli UBMS 88-1 Tet B", "assay": "microbe, parasite or virus in culture", "format": "cell-based", "conditions": "E. coli UBMS 88-1 Tet B; 18 hours at 35° C."}, "[6]": {"system": "S. aureus UBMS 90-2 Tet M", "assay": "microbe, parasite or virus in culture", "format": "cell-based", "conditions": "S. aureus UBMS 90-2 Tet M"}, "[7]": {"system": "E. coli J3272 Tet sens.", "assay": "MIC, agar dilution", "format": "cell-based"}, "[8]": {"system": "the ribosome", "assay": "Reversibility of binding: bacterial growth resumes after washing", "format": "cell-based", "conditions": "bacterial growth resumes when the compound is removed from the cultures by washing", "excerpt": "Therefore, the ability of these compounds to inhibit bacterial growth appears to be a direct consequence of its ability to inhibit protein synthesis at the ribosome level."}, "[9]": {"system": "Ps. acruginosa ATCC 27853", "assay": "MIC, agar dilution", "format": "cell-based", "conditions": "Ps. acruginosa ATCC 27853"}, "[10]": {"system": "Wild Type S30 (wild type ribosomes, E. coli strain MRE600, tetracycline sensitive)", "assay": "E. coli in vitro protein translation system, wild type S30"}, "[11]": {"system": "S. aureus IVES 1 983", "assay": "MIC, agar dilution", "format": "cell-based", "conditions": "S. aureus IVES 1 983"}, "[12]": {"system": "E. coli J3272 Tet D", "assay": "microbe, parasite or virus in culture", "format": "cell-based", "conditions": "E. coli J3272 Tet D"}, "[13]": {"system": "S. aureus ROSE (MP)", "assay": "MIC, agar dilution", "format": "cell-based", "conditions": "S. aureus ROSE (MP)"}, "[14]": {"system": "E. coli UBMS 89-2 Tet sens.", "assay": "MIC, agar dilution", "format": "cell-based", "conditions": "E. coli UBMS 89-2 Tet sens."}, "[15]": {"system": "E. coli UBMS 89-1 Tet M", "assay": "microbe, parasite or virus in culture", "format": "cell-based", "conditions": "E. coli UBMS 89-1 Tet M"}, "[16]": {"system": "tetracycline sensitive and resistant Gram-positive and Gram-negative bacteria", "assay": "In vitro antibacterial activity, summary in words of Table I", "format": "cell-based"}, "[17]": {"system": "S. aureus IVES 2943", "assay": "MIC, agar dilution", "format": "cell-based", "conditions": "S. aureus IVES 2943"}, "[18]": {"system": "E. coli UBMS 90-5", "assay": "MIC, agar dilution", "format": "cell-based"}, "[19]": {"system": "Staphylococcus aureus strain Smith (tetracycline sensitive)", "assay": "In vivo antibacterial evaluation, acute lethal infection in mice", "conditions": "animals infected with S. aureus Smith, 10080 min"}, "[20]": {"system": "S. aureus UBMS 88-4", "assay": "MIC, agar dilution", "format": "cell-based", "conditions": "S. aureus UBMS 88-4"}, "[21]": {"system": "E. coli MC 4100 TNIOC Tet B", "assay": "microbe, parasite or virus in culture", "format": "cell-based", "conditions": "E. coli MC 4100 TNIOC Tet B"}, "[22]": {"system": "S. aureus UBMS 90-1 Tet M", "assay": "microbe, parasite or virus in culture", "format": "cell-based", "conditions": "S. aureus UBMS 90-1 Tet M"}, "[23]": {"system": "E. coli UBMS 90-4 Tet M", "assay": "microbe, parasite or virus in culture", "format": "cell-based", "conditions": "E. coli UBMS 90-4 Tet M"}, "[24]": {"system": "S. aureus UBMS 88-7 Tet K", "assay": "microbe, parasite or virus in culture", "format": "cell-based", "conditions": "S. aureus UBMS 88-7 Tet K"}, "[25]": {"system": "S. aureus UBMS 90-3", "assay": "MIC, agar dilution", "format": "cell-based", "conditions": "S. aureus UBMS 90-3"}}}
{"compound": "CC1CCN(CC(=O)Nc2cc(N(C)C)c3c(c2O)C(=O)C2=C(O)C4(O)C(=O)C(C(N)=O)=C(O)C(N(C)C)C4CC2C3)CC1.Cl.Cl", "note": "(stereo not drawn) [G, [7S-(7alpha,10aalpha)]-N-[9-(Aminocarbonyl)4,7-bis(dimethylamino)-5,5a,6,6a,7,10,10a,12-octahydro-1,8,10a,ll-tetrahydroxy-10,12-dioxo-2-naphthacenyl]-4-methyl-l-piperidineacetamide dihydrochloride]", "values": [{"measurement": "MIC", "setting": "[1]", "value": 0.5, "unit": "µg/mL"}, {"measurement": "MIC", "setting": "[2]", "value": 2, "unit": "µg/mL"}, {"measurement": "MIC", "setting": "[3]", "value": 1, "unit": "µg/mL"}, {"measurement": "MIC", "setting": "[4]", "value": 16, "unit": "µg/mL"}, {"measurement": "MIC", "setting": "[5]", "value": 2, "unit": "µg/mL"}, {"measurement": "MIC", "setting": "[6]", "value": 0.5, "unit": "µg/mL"}, {"measurement": "MIC", "setting": "[7]", "value": 1, "unit": "µg/mL"}, {"measurement": "reversibility of binding to the ribosome", "setting": "[8]", "value": "bind reversibly"}, {"measurement": "MIC", "setting": "[9]", "value": 32, "unit": "µg/mL"}, {"measurement": "% Inhibition Wild Type S30", "setting": "[10]; Conc. 0.06 mg/ml", "value": 90, "unit": "%"}, {"measurement": "% Inhibition Wild Type S30", "setting": "[10]; Conc. 1.0 mg/ml", "value": 99, "unit": "%"}, {"measurement": "inhibition of protein synthesis occuring on wild type ribosomes", "setting": "[10]; coupled transcription and translation system", "value": "effectively inhibit protein synthesis"}, {"measurement": "MIC", "setting": "[11]", "value": 0.5, "unit": "µg/mL"}, {"measurement": "MIC", "setting": "[12]", "value": 0.25, "unit": "µg/mL"}, {"measurement": "MIC", "setting": "[13]", "value": 1, "unit": "µg/mL"}, {"measurement": "MIC", "setting": "[14]", "value": 2, "unit": "µg/mL"}, {"measurement": "MIC", "setting": "[15]", "value": 0.5, "unit": "µg/mL"}, {"measurement": "activity against E. coli tetA, E. coli tetC and E. coli tetD", "setting": "[16]", "value": "good activity"}, {"measurement": "in vitro activity against tetracycline resistant strains containing tetM and tetB resistance determinants", "setting": "[16]; S. aureus UBMS 88-5, 90-1, 90-2, E. coli UBMS 89-1, 90-4, 88-1, TN10C tetB", "value": "excellent"}, {"measurement": "activity against recently isolated bacteria from clinical sources compared with minocycline", "setting": "[16]; clinical isolates", "value": "superior to that of minocycline"}, {"measurement": "activity against susceptible strains compared with minocycline", "setting": "[16]; susceptible strains", "value": "equallyas effective as minocycline"}, {"measurement": "MIC", "setting": "[17]", "value": 0.5, "unit": "µg/mL"}, {"measurement": "MIC", "setting": "[18]", "value": 2, "unit": "µg/mL"}, {"measurement": "ED50", "setting": "[19]; administered intravenously", "value": "1 to 2", "unit": "mg/kg"}, {"measurement": "ED50", "setting": "[19]; given orally", "value": "4 to 8", "unit": "mg/kg"}, {"measurement": "MIC", "setting": "[20]", "value": 0.5, "unit": "µg/mL"}, {"measurement": "MIC", "setting": "[21]", "value": 2, "unit": "µg/mL"}, {"measurement": "MIC", "setting": "[22]", "value": 0.5, "unit": "µg/mL"}, {"measurement": "MIC", "setting": "[23]", "value": 1, "unit": "µg/mL"}, {"measurement": "MIC", "setting": "[24]", "value": 0.5, "unit": "µg/mL"}, {"measurement": "MIC", "setting": "[25]", "value": 0.5, "unit": "µg/mL"}]}
